These molecules were tested against T1, hCCR2b (Homo sapiens, UniProt P41597) (assay: CCR2 binding assay ([125I]MCP-1, SPA, CHO cell membranes)). Conditions: membranes from CHO cells expressing hCCR2b, 50 pM [125I]MCP-1; read-out: Binding hCCR2 (Ki).
T1 sequence (P41597 1-360 isoform P41597-2): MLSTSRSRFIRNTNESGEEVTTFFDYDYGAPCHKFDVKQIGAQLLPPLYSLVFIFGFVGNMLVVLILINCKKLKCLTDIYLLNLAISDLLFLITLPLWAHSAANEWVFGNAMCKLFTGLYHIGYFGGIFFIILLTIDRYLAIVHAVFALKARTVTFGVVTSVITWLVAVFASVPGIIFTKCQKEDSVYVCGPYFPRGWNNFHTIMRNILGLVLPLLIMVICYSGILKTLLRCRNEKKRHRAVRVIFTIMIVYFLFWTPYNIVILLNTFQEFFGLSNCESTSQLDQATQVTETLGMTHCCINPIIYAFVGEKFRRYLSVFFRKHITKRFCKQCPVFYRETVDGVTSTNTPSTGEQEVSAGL
Set-up: expressed in transfected cells; host or cells: CHO cells (membrane preparation)
Method: Membranes were prepared from CHO cells expressing mCCR2b or hCCR2b for use in ligand binding studies. Cells were suspended in 50mM Tris-HCL, pH 7.4, 2 mM EDTA, 250 mM Sucrose and 1x Complete EDTA-free protease inhibitor cocktail (Roche) (Buffer A), and disrupted at 4°C by N2 decompression using a cell disruption bomb (Parr Instrument). Following centrifugation at 200 RCF for 10 min at 4°C, the supernatant was suspended in buffer A and centrifuged again at 19000 RPM (RCSC rotor SS34 code 05 Sorvall Instruments DUPONT) for 90 min at 4°C. The pellet was then suspended in 10 mM HEPES, pH 7.4, 1 mM EDTA, 250 mM Sucrose, and 1x Complete EDTA-free protease inhibitor cocktail (Buffer B) and homogenized using a potter. Membranes were flash frozen in liquid N2 and stored at -80°C. [125I] Monocyte Chemoattractant Protein -1 (MCP-1) (25µCi; Perkin Elmer) was added to test compounds in DMSO (1% final). Membranes and WGA SPA beads (GE Healthcare) were added to give a final volume of 100 µl in 96-well plates with assay concentrations of 50 pM or 100 pM [125I]Monocyte Chemoattractant Protein -1 (respectively for hCCR2b or mCCR2b), 50 mM HEPES, pH 7.4, 5 mM MgCl2, 1 mM CaCl2, 0.1% BSA, 1-5 µg/well of membranes and 100 µg/well of WGA SPA beads. Binding was performed for 90 min at RT with strong agitation of speed 5 (Heidolph Titramax 100 SCITEC) and bound radioactivity was measured on a PerkinElmer 1450 MicroBeta counter. Specific binding was calculated by subtracting remaining radioactivity in the presence of 1000-fold excess of unlabeled compound. Binding data were analyzed using the Genedata Screener® software.

| Structure (SMILES) | Ki [nM] |
| --- | --- |
| CCN1CCC2(CC1)OC(=O)C(C)=C2C(=O)N1C[C@@H]2C[C@H]1CN2c1nccc(C(F)(F)F)n1 [Compound 72, 8-ethyl-3-methyl-4-({(1S,4S)-5-[4-(trifluoromethyl)pyrimidin-2-yl]-2.5-diazabicyclo[2.2.1]hept-2-yl}carbonyl)-1-oxa-8-azaspiro[4.5]dec-3-en-2-one] | < 50 |
| COC(CN1CCC2(CC1)OC(=O)C(C)=C2C(=O)N1CCN(c2cccc(C(F)(F)F)c2)CC1)c1ccccc1 (stereo not shown) [Compound 7, 8-(2-methoxy-2-phenylethyl)-3-methyl-4-({4-[3-(trifluoromethyl)phenyl]piperazin-1-yl}carbonyl)-1-oxa-8-azaspiro[4.5]dec-3-en-2-one] | 50 to 100 |
| CCN1CCC2(CC1)OC(=O)C(C)=C2C(=O)NCCc1cccc(C(F)(F)F)c1 [Compound 99, 8-ethyl-3-methyl-2-oxo-N-{2-[3-(trifluoromethyl)phenyl]ethyl}-1-oxa-8-azaspiro[4.5]dec-3-ene-4-carboxamide] | 500 to 2000 |
| CC1=C(C(=O)N2CCN(c3cccc(C(F)(F)F)c3)CC2)C2(CCN(CCC(=O)O)CC2)OC1=O [Compound 10, 3-[3-methyl-2-oxo-4-({4-[3-(trifluoromethyl)phenyl]piperazin-1-yl}carbonyl)-1-oxa-8-azaspiro[4.5]dec-3-en-8-yl]propanoic acid] | 100 to 500 |
| CCN1CCC2(CC1)OC(=O)C(C)=C2C(=O)N1CCN(CCc2ccc(F)cc2)CC1 [Compound 58, 8-ethyl-4-({4-[2-(4-fluorophenyl)ethyl]piperazin-1-yl}carbonyl)-3-methyl-1-oxa-8-azaspiro[4.5]dec-3-en-2-one] | 100 to 500 |
| CCN1CCC2(CC1)OC(=O)C(C)=C2C(=O)Nc1ccc(-n2ccc(C(F)(F)F)n2)cc1 [Compound 75, 8-ethyl-3-methyl-2-oxo-N-{4-[3-(trifluoromethyl)-1H-pyrazol-1-yl]phenyl}-1-oxa-8-azaspiro[4.5]dec-3-ene-4-carboxamide] | 500 to 2000 |
| CC1=C(C(=O)N2CCc3ccc(C(F)(F)F)cc3C2)C2(CCN(C3CCS(=O)(=O)CC3)CC2)OC1=O [Compound 37, 8-(1,1-dioxidotetrahydro-2H-thiopyran-4-yl)-3-methyl-4-{[7-(trifluoromethyl)-3,4-dihydroisoquinolin-2(1H)-yl]carbonyl}-1-oxa-8-azaspiro[4.5]dec-3-en-2-one] | 50 to 100 |
| CC1=C(C(=O)N2CCN(c3cccc(C(F)(F)F)c3)CC2)C2(CCN(Cc3ccccc3)CC2)OC1=O [Compound 109, 8-benzyl-3-methyl-4-({4-[3-(trifluoromethyl)phenyl]piperazin-1-yl}carbonyl)-1-oxa-8-azaspiro[4.5]dec-3-en-2-one] | 100 to 500 |
| CCN1CCC2(CC1)OC(=O)C(C)=C2C(=O)N1CCc2ccc(C#N)cc2C1 [Compound 49, 2-[(8-ethyl-3-methyl-2-oxo-1-oxa-8-azaspiro[4.5]dec-3-en-4-yl)carbonyl]-1,2,3,4-tetrahydroisoquinoline-7-carbonitrile] | 100 to 500 |
| CCN1CCC2(C1)OC(=O)C(C)=C2C(=O)N1CCN(c2cccc(C(F)(F)F)c2)CC1 (stereo not shown) [Compound 118, 7-ethyl-3-methyl-4-({4-[3-(trifluoromethyl)phenyl]piperazin-1-yl}carbonyl)-1-oxa-7-azaspiro[4.4]non-3-en-2-one] | 50 to 100 |
| CCN1CCC2(CC1)OC(=O)C(C)=C2C(=O)Nc1cnn(-c2ccc(C(F)(F)F)cc2)c1 [Compound 67, 8-ethyl-3-methyl-2-oxo-N-{1-[4-(trifluoromethyl)phenyl]-1H-pyrazol-4-yl}-1-oxa-8-azaspiro[4.5]dec-3-ene-4-carboxamide] | 500 to 2000 |
| CCN1CCC2(CC1)OC(=O)C(C)=C2C(=O)N1CCN(c2cc(Cl)cc(Cl)c2)CC1 [Compound 114, 4-{[4-(3,5-dichlorophenyl)piperazin-1-yl]carbonyl}-8-ethyl-3-methyl-1-oxa-8-azaspiro[4.5]dec-3-en-2-one] | 100 to 500 |
| CC1=C(C(=O)N2CCc3ccc(C(F)(F)F)cc3C2)C2(CCN(C3CCCC3)CC2)OC1=O [Compound 30, 8-cyclopentyl-3-methyl-4-{[7-(trifluoromethyl)-3,4-dihydroisoquinolin-2(1H)-yl]carbonyl}-1-oxa-8-azaspiro[4.5]dec-3-en-2-one] | < 50 |
| CC1=C(C(=O)N2CCc3ccc(C(F)(F)F)cc3C2)C2(CCN(C(C)(C)C)CC2)OC1=O [Compound 77, 8-tert-butyl-3-methyl-4-{[7-(trifluoromethyl)-3,4-dihydroisoquinolin-2(1H)-yl]carbonyl}-1-oxa-8-azaspiro[4.5]dec-3-en-2-one] | < 50 |

The next lines start with the values.

| Ki [nM] | Structure (SMILES) |
| --- | --- |
| < 50 | CCN1CCC2(CC1)OC(=O)C(C)=C2C(=O)NCC(=O)Nc1cccc(C(F)(F)F)c1 [Compound 56, 8-ethyl-3-methyl-2-oxo-N-(2-oxo-2-{[3-(trifluoromethyl)phenyl]amino}ethyl)-1-oxa-8-azaspiro[4.5]dec-3-ene-4-carboxamide] |
| < 50 | CC1=C(C(=O)N2CCN(c3cccc(C(F)(F)F)c3)CC2)C2(CCN(C(C)Cc3ccccc3)CC2)OC1=O (stereo not shown) [Compound 104, 3-methyl-8-(1-methyl-2-phenylethyl)-4-({4-[3-(trifluoromethyl)phenyl]piperazin-1-yl}carbonyl)-1-oxa-8-azaspiro[4.5]dec-3-en-2-one] |
| < 50 | CC1=C(C(=O)N2CCN(c3cccc(C(F)(F)F)c3)CC2)C2(CCN(CC3CCOC3)CC2)OC1=O (stereo not shown) [Compound 22, 3-methyl-8-(tetrahydrofuran-3-ylmethyl)-4-({4-[3-(trifluoromethyl)phenyl]piperazin-1-yl}carbonyl)-1-oxa-8-azaspiro[4.5]dec-3-en-2-one] |
| < 50 | CC1=C(C(=O)N2CCc3ncc(C(F)(F)F)cc3C2)C2(CCN(C)CC2)OC1=O [Compound 122, 3,8-dimethyl-4-{[3-(trifluoromethyl)-7,8-dihydro-1,6-naphthyridin-6(5H)-yl]carbonyl}-1-oxa-8-azaspiro[4.5]dec-3-en-2-one] |
| < 50 | CC1=C(C(=O)N2CCc3ccc(C(F)(F)F)cc3C2)C2(CCN(CCN3CCOCC3)CC2)OC1=O [Compound 19, 3-methyl-8-(2-morpholin-4-ylethyl)-4-{[7-(trifluoromethyl)-3,4-dihydroisoquinolin-2(1H)-yl]carbonyl}-1-oxa-8-azaspiro[4.5]dec-3-en-2-one] |
| < 50 | CC1=C(C(=O)N2CCc3ncc(C(F)(F)F)cc3C2)C2(CCN(CC3CCOC3)CC2)OC1=O (stereo not shown) [Compound 46, 3-methyl-8-(tetrahydrofuran-3-ylmethyl)-4-{[3-(trifluoromethyl)-7,8-dihydro-1,6-naphthyridin-6(5H)-yl]carbonyl}-1-oxa-8-azaspiro[4.5]dec-3-en-2-one] |
| < 50 | CCN1CCC2(CC1)OC(=O)C(C)=C2C(=O)N1CCN(c2cc(C(F)(F)F)ccn2)CC1 [Compound 70, 8-ethyl-3-methyl-4-({4-[4-(trifluoromethyl)pyridin-2-yl]piperazin-1-yl}carbonyl)-1-oxa-8-azaspiro[4.5]dec-3-en-2-one] |
| < 50 | COCCN1CCC2(CC1)OC(=O)C(C)=C2C(=O)N1CCN(c2cccc(C(F)(F)F)c2)CC1 [Example 4, 8-(2-methoxyethyl)-3-methyl-4-({4-[3-(trifluoromethyl)phenyl]piperazin-1-yl}carbonyl)-1-oxa-8-azaspiro[4.5]dec-3-en-2-one] |
| < 50 | CC1=C(C(=O)N2CCN(c3cccc(C(F)(F)F)c3)CC2)C2(CCN(C3CCOCC3)CC2)OC1=O [Compound 21, 3-methyl-8-(tetrahydro-2H-pyran-4-yl)-4-({4-[3-(trifluoromethyl)phenyl]piperazin-1-yl}carbonyl)-1-oxa-8-azaspiro[4.5]dec-3-en-2-one] |
| < 50 | CCN1CCC2(CC1)OC(=O)C(C)=C2C(=O)N1CCc2ccc(Cl)cc2C1 [Compound 50, 4-[(7-chloro-3,4-dihydroisoquinolin-2(1H)-yl)carbonyl]-8-ethyl-3-methyl-1-oxa-8-azaspiro[4.5]dec-3-en-2-one] |
| < 50 | CCN1CCC2(CC1)OC(=O)C(C)=C2C(=O)N1CCN(c2cc(C(F)(F)F)cc(C(F)(F)F)c2)CC1 [Compound 88, 4-({4-[3,5-bis(trifluoromethyl)phenyl]piperazin-1-yl}carbonyl)-8-ethyl-3-methyl-1-oxa-8-azaspiro[4.5]dec-3-en-2-one] |

Source: patent EP2508526A1, “Spiroalkene carboxamide derivatives and their use as chemokine receptor modulators” (Ares Trading SA, priority 2011, dated 2012)
